This is an account of results in patent US5135952A, “Antiinflammatory and/or antiallergic methods” (Senju Pharmaceutical Co., ltd., priority 1989, dated 1992).

The inhibition is the share of the control response that was lost under treatment. Higher therefore signals a response far below the control.

The test system of data set [1] is carrageenan-induced conjunctival edema. The experiment in a line: Effect on Rat Carrageenan-Induced Conjunctival Edema. The class given is in vivo, rat (male Wistar). The settings on record: for Edema weight / % Inhibition (edema weight): 3 hours, n = 10; for Edema weight: mean ± S.E.; for effect on rat carrageenan-induced conjunctival edema, in words: DCE-GS 3, 10, 30 mg/kg i.v., ester derivatives and GSH 30 mg/kg. The method, then:
Effect on Rat Carrageenan-Induced Conjunctival Edema Male Wistar rats weighing about 130 g were used in the experiment. S-(α,β-Dicarboxyethyl)glutathione (hereinafter referred to as DCE-GS) dissolved in physiological saline and adjusted with sodium hydrochloride to pH 7 was administered in doses of 3, 10 and 30 mg/kg to rats through the caudal vein (control group: physiological saline). […] One minute later, 50 μl of 1% carrageenan solution was injected beneath the palpebral conjunctiva of the rat under pentobarbital anesthesia. After three hours, each rat was sacrificed and conjunctival edema was isolated and weighted.

In data set [2] the test system is platelet. The settings on record: previously discovered by the inventors (Japanese Kokai 63-8337/1988; Japanese Application 1-79956/1989); cited from earlier work.
Data set [3] deals with male ddY mice. As to the kind of experiment: Intravenous Acute Toxicity Study. The class given is in vivo, mouse (male ddY). The settings on record: i.v.; 100, 200, 400, 800 and 1,600 mg/kg; seventy-two-hour observation; groups of 5. The method, then:
Intravenous Acute Toxicity Study
The intravenous acute toxicity study of DCE-GS was conducted in male ddY mice, weighing about 20 g, in groups of 5. The doses were 100, 200, 400, 800 and 1,600 mg/kg (common ratio 2). All the injections were adjusted with 1N sodium hydrochloride to pH 7.

For data set [4], the system named is rat peritoneal mast cells. The experiment in a line: Inhibitory Effect on the Release of Histamine from Rat Peritoneal Exudate Cells (Compound 48/80-induced). The class given is cell-based, rat (male SD). The note with it: for % Release (histamine): mean ± S.E., boiled control specimen = 100%, control 75.0 ± 6.7. The method, then:
Inhibitory Effect on the Release of Histamine from Rat Peritoneal Exudate Cells
(1) Preparation of rat peritoneal cell suspension
Male SD rats weighing 250 to 280 g were used. The rat peritoneal cells were collected and isolated according to the method of Sullivan et al. First, the rat was bled to death by decapitation and immediately the hair of the abdomen was shaved, the skin was incised a few centimeters, and 10 ml of mast cell medium (MCM) was injected into the peritoneal cavity using a 18-G needle while picking up the muscle with tweezers, followed by 90-sec gentle massage. Then, the abdomen was opened to collect as much ascites as possible using a Terumo syringe. The ascites contaminated with blood was not used in the experiment. The ascites was layered in a polycarbonate tube containing 2 ml of 40% Ficoll 400 (Pharmacia) dissolved in MCM, allowed to stand at room temperature for 30 minutes, and centrifuged at 700 rpm at 4° C. for 10 minutes. Then, the sediment in the upper layer of Ficoll 400 was pipetted and washed three times with about 7 ml of MCM. The cells were counted with a Burker-Turk cytometer and using MCM as a diluent, a cell suspension of about 10^5 cells/ml (rat peritoneal cell suspension) was prepared. Mast cells were identified by staining intracellular granules with 0.05% toluidine blue.
(2) Release of histamine from mast cells
After 0.8 ml of rat peritoneal cell suspension was preincubated at 37° C. for 10 minutes, 0.1 ml of the test drug was added. The system was incubated for 5 minutes, at the end of which time 0.1 ml of 10 μg/ml of Compound 48/80 (Sigma) in physiological saline was added. After 10 minutes' incubation, the reaction mixture was cooled in ice-water for 10 minutes to terminate the reaction and centrifuged at 700 rpm at 4° C. for 5 minutes. Then, histamine in the supernatant was determined by HPLC in accordance with the method of Shore et al. as partially modified.

For data set [5] the following is noted: previously discovered by the inventors (Japanese Kokai 63-8337/1988; Japanese Application 1-79956/1989); cited from earlier work.
Data set [6] relates to passive anaphylaxis of the back of the rat. As to the kind of experiment: Effect on Passive Anaphylaxis of the Back of the Rat. The class given is in vivo, rat (male Wistar). The settings on record: for Area, Inhibition (%) / Dye, Inhibition (%) / Area (of stain) / Dye: 30 minutes; for Area (of stain) / Dye: mean ± S.E., n = 4 or 5; for Area (of stain): saline 926 ± 65; for Dye: saline 767 ± 87. The method, then: Effect on Passive Anaphylaxis of the Back of the Rat
Male Wistar rats weighing about 130 g were used in the experiment. The back hair of each rat was clipped with clippers. The rat antiserum was injected intradermally at the back of the rat. After three days, DCE-GS was administered in doses of 3, 10 and 30 mg/kg (physiological saline to controls) into the caudal vein and after one minute 1 ml of a 50:50 (v/v) mixture of the antigen 1% ovalbumin and 2% Evans blue was administered intravenously to induce passive anaphylaxis. After 30 minutes, the rat was sacrificed and the stained area was determined. The pertinent area was removed and the dye was extracted with 20 ml of formaldehyde for determination.

Data set [7] can be described thus: hygroscopicity. It counts as physicochemical.
The mark [8] stands for this setting: Table 2, 30 mg/kg, *p < 0.01, **p < 0.001 vs saline (73.7 ± 2.9).

In data set [1] (setting [8]), “S-(monoethyl-α,β-dicarboxyethyl)glutathione sodium [DCE-GS monoethyl ester sodium]” gave an Edema weight of 58.5 ± 2.0 mg. Besides, in data set [1] (Table 2, 30 mg/kg), the “% Inhibition (edema weight)” value amounted to 20.6%.
For the molecule `CCOC(=O)CC(SC[C@H](NC(=O)CC[C@H](N)C(=O)O)C(=O)NCC(=O)O)C(=O)OCC` (stereo partly drawn) [DCE-GS diethyl ester sodium, S-(diethyl-α,β-dicarboxyethyl)glutathione sodium], the Edema weight in data set [1] (setting [8]) was determined as 49.7 ± 2.6 mg. Moreover, the “% Inhibition (edema weight)” value in data set [1] (Table 2, 30 mg/kg) worked out at 32.6%.
On to `N[C@@H](CCC(=O)N[C@@H](CSC(CC(=O)O)C(=O)O)C(=O)NCC(=O)O)C(=O)O` (stereo partly drawn) [DCE-GS, S-(α,β-Dicarboxyethyl)glutathione], for which, in data set [2], the “platelet aggregation inhibitory activity” value is “platelet aggregation inhibitory activity”. Also, the “death / abnormal behavior” value in data set [3] is “neither death nor abnormal behavior”. Also, the “% Release (histamine)” value in data set [4] (10^-3 M, n = 3) was found to be 2.9 ± 3.4%; in data set [4] (10^-4 M, n = 3), 59.4 ± 6.2%; in data set [4] (10^-5 M, n = 3), 73.4 ± 6.5%. Further, the “inhibition of histamine release, in words” value in data set [4] (10^-5 to 10^-3 M) is “inhibited histamine release concentration-dependently”. The inhibition at 1000 µM in data set [4] (Rattus norvegicus, Mast cell, 10^-3 M, n = 3) was found to be 96.1%. In data set [4] (Rattus norvegicus, Mast cell, 10^-4 M, n = 3), this molecule displayed an inhibition at 100 µM of 20.8%. The same molecule yielded an inhibition at 10 µM in data set [4] (Rattus norvegicus, Mast cell, 10^-5 M, n = 3) of 2.1%. Moreover, in data set [5], the antihemogglutination activity entry is “antihemogglutination activity”. In addition, the “Area, Inhibition (%)” value in data set [6] (3 mg/kg i.v.) was 6.5%; in data set [6] (10 mg/kg i.v.), 30.5%; in data set [6] (30 mg/kg i.v.) it was 47.2%. Also, the “Dye, Inhibition (%)” value in data set [6] (3 mg/kg i.v.) stood at 17.5%; in data set [6] (10 mg/kg i.v.) it was 38.5%; in data set [6] (30 mg/kg i.v.) it was 43.4%. The “Area (of stain)” value in data set [6] (3 mg/kg i.v., *p < 0.05) amounted to 866 ± 195 mm^2; in data set [6] (10 mg/kg i.v., **p < 0.01), 644 ± 88 mm^2; in data set [6] (30 mg/kg i.v., ***p < 0.001), 489 ± 47 mm^2. Further, the Dye is reported as 633 ± 111 μg/site in data set [6] (3 mg/kg i.v.); 472 ± 98 μg/site in data set [6] (10 mg/kg i.v.); 434 ± 77 μg/site in data set [6] (30 mg/kg i.v., *p < 0.05). The “inhibition of area of stain and amount of dye, in words” value in data set [6] (3, 10 and 30 mg/kg i.v.) is “inhibited both the area of stain and the amount of dye on the rat back dose-dependently”. In addition, in data set [1], the “effect on rat carrageenan-induced conjunctival edema, in words” value is on record as “inhibited rat carrageenan-induced conjunctival edema dose-dependently”. Besides, the “Edema weight” value is given as 50.5 ± 1.9 mg in data set [1] (Table 1, 3 mg/kg i.v. (caudal vein), *p < 0.001 vs saline (71.7 ± 3.6)); 44.9 ± 2.4 mg in data set [1] (Table 1, 10 mg/kg i.v., *p < 0.001 vs saline (71.7 ± 3.6)); 44.9 ± 2.2 mg in data set [1] (Table 1, 30 mg/kg i.v., *p < 0.001 vs saline (71.7 ± 3.6)). For the same molecule, the “% Inhibition (edema weight)” value in data set [1] (Table 1, 3 mg/kg i.v.) is on record as 29.6%; in data set [1] (Table 1, 10 mg/kg i.v.) it was 37.4%; in data set [1] (Table 1, 30 mg/kg i.v.), 37.4%.
In the case of `N[C@@H](CCC(=O)N[C@@H](CS)C(=O)NCC(=O)O)C(=O)O` [GSH, glutathione, reference compound], the “effect on rat carrageenan-induced conjunctival edema, in words” value in data set [1] is recorded as “no antiinflammatory effect”. For the same molecule, the Edema weight in data set [1] (setting [8]) is recorded as 74.8 ± 3.5 mg. For the same molecule, in data set [1] (Table 2, 30 mg/kg), the “% Inhibition (edema weight)” value is -1.5%.
Consider `CCCCOC(=O)CC(SC[C@H](NC(=O)CC[C@H](N)C(=O)O)C(=O)NCC(=O)O)C(=O)OCCCC` (stereo partly drawn) [DCE-GS di-n-butyl ester sodium, S-(di-n-butyl-α,β-dicarboxyethyl)glutathione sodium], for which, in data set [7], the hygroscopicity entry is listed as “hygroscopic”. The molecule also displayed an Edema weight in data set [1] (setting [8]) of 60.9 ± 2.8 mg. Also, in data set [1] (Table 2, 30 mg/kg), the “% Inhibition (edema weight)” value was 17.4%.
